This note sets out measurements from US20140227208A1, “COSMETIC COMPOSITIONS CONTAINING SUBSTITUTED AZOLE AND METHODS FOR ALLEVIATING MECHANICALLY-INDUCED SKIN INFLAMMATION” (The Procter & Gamble Company, priority 2013, published 2014).

The IC50 is the midpoint of a concentration-inhibition curve.

For data set [1], the target named is CYP3A4 (Homo sapiens, UniProt P08684). Nature of the data set: In vitro CYP/CYP3A4 inhibition assay (P450-GLO Assay kit, Promega). From the text: The metabolism of retinoic acid and vitamin D in the skin is incompletely understood, but there is evidence for the involvement of CYP26A1, CYP3A4 and CYP2C8 in catalyzing the 4-hydroxylation of all-trans RA to 4-hydroxy-RA. It is believed, without being limited by theory, that CYP3A4 may be particularly important for ATRA metabolism in the skin. This is because CYP3A4 is expressed in skin, involved in RA metabolism, a CYP with one of the broadest substrate specificities of all of the known CYPs and available as a human recombinant protein in a commercial kit. Thus, a commercially available CYP3A4 assay was used as a surrogate to predict RAMBA potential in the skin.
The commercially available P450-GLO™ Assay kit (Promega Corporation, Madison Wis.) was used to screen various compounds for potential CYP activity, specifically CYP3A4A inhibition activity. CYP3A4A is thought to be among the primary CYP isoforms responsible for retinoic acid metabolism in the skin.
The commercially available P450-GLO™ Assay kit (Promega Corporation, Madison Wis.) was used to screen various compounds for potential CYP activity, specifically CYP3A4A inhibition activity. CYP3A4A is thought to be one of the primary CYP isoforms responsible for retinoic acid metabolism in the skin.

Data set [2] relates to ATRA 4-hydroxylase activity (CYP) of pig liver microsomes. Nature of the data set: In vitro ATRA 4-hydroxylase (CYP) inhibition assay using pig liver microsomes. As to conditions: for IC50: 90 min. From the text: Cytochrome P450 is a large and diverse group of enzymes that catalyze the oxidation of organic substances. […] Applicant evaluated the potential RAMBA activity of several azoles using pig liver microsomes, a rich source of CYP activity, comprising many different CYP 450 isoforms. […] As understanding in this area has progressed, a more specific CYP inhibition assay can be used to provide better predictivity of activity in human skin. Nevertheless, this assay may still be used as a general predictor of overall CYP activity.
Microsomal preparation: One lobe of fresh pig liver was obtained at the time of slaughter from a food-processing company and immediately placed in ice cold 15 mM KH2PO4/250 mM sucrose (pH 7.4) and kept on ice during transportation. A 10 g sample of liver was minced and homogenized in 30 mls of homogenization buffer (15 mM KH2PO4/250 mM sucrose) using a Tekmar homoginizer by pulsing 3 times 20 second pulses. […] The remaining pig liver was cut into 10-g pieces and wrapped in aluminum foil and stored at −80° C. The homogenates from the 8 samples were pooled and centrifuged at 13,000×g for 20 minutes at 4° C. to remove crude debris and the supernatant was further centrifuged at 100,000×g for 70 minutes at 4° C. The microsomal pellets were resuspended into 50 mls of 150 mM KH2PO4/1 mM DTT (pH 7.4) and 1 mL aliquots were stored at −80° C. In vitro 4-hydroxylase activity assay: All procedures were carried out under minimal light in order to prevent degradation of the retinoid samples. The ATRA 4-hydroxylase assay can be described briefly as follows: 100-150 μg of pig liver microsomal protein in 150 mM KH2PO4 was incubated at 37° C. in the presence of radiolabeled ATRA and 5 mM NADPH for 90 min. The final ATRA concentration was 1 μM, as a combination of [20-Methyl-^3H]ATRA and unlabeled ATRA. Initially radiolabeled ATRA was used to assist in validating the method. Once retention times of retinoid metabolites were identified unlabeled ATRA was used for screening. Compounds tested as possible competitive substrates were added to the assay 10 min prior to the addition of ATRA. Ethanol, containing 0.1% butylated hydroxytoluene (BHT) as an antioxidant, was used to stop the reactions. For recovery of ATRA the pH of reactions were adjusted to 3.0 before extraction with 0.1N HCl. Retinoids were extracted from the protein aqueous phase with 4 mls hexane, 1 ml 100 μg/ml BHT in water (pH 3). An additional 4 mls of hexane (pH 3) was used for a second extraction. The organic extractions were pooled, evaporated to dryness using a speed vac, and resuspended in 62.5 μl acetonitrile containing 1 mg/ml BHT. Samples were analyzed by HPLC. […] Mobile phases used for gradient elution of retinoids were those of Duell et al., J. Clin. Invest. […] Mobile phase A was acetonitrile:0.02 M ammonium acetate:acetic acid (1:1:0.01) and mobile phase B was acetonitrile:0.2M ammonium acetate;acetic acid (19:1:0.008). […] Because of the sensitivity limitations of the β-RAM spectrometer, it was not used to quantitate peak areas but rather to confirm ATRA and ATRA 4-hydroxylase activity. Calculated peaks areas (using Millenium software—Waters Corp.) of ATRA and ATRA metabolites were used to quantify relative activity levels.
(Liver microsomes are a subcellular fraction often used to study metabolism.)

Data set [3] has as its system mechanically-induced skin inflammation (shaving). In words: Method of treatment: shaving cream and leave-on skin cream applied to facial and neck regions. As to conditions: 0.55% by weight in shaving cream before and leave-on cream after shaving, topical, 8 weeks. Format: in vivo, human. From the text:
A test subject topically applies a shaving cream composition comprising 0.55% 1-phenylimidazole, by weight in a vehicle, to the facial and neck regions prior to shaving. A leave-on skin cream comprising 0.55% 1-phenylimidazole, by weight in a vehicle, is applied to the same facial and neck regions after shaving.

Setting [4] is: IC50 (uM), CYP3A4 inhibition, P450-GLO Assay kit, human recombinant CYP3A4.
Setting [5] is: read-out: IC50 (μM), in vitro 4-hydroxylase inhibition assay, pig liver microsomes, 1 μM ATRA, 5 mM NADPH, 37° C.
The mark [6] stands for this setting: P450-GLO Assay kit, human recombinant CYP3A4.
[7] abbreviates: read-out: IC50 (uM), CYP3A4 inhibition, P450-GLO Assay kit, human recombinant CYP3A4.

Where two headings read alike, the source gives them in different places. Bounds are passed on as bounds.

Sequence of CYP3A4 (P08684 whole entry): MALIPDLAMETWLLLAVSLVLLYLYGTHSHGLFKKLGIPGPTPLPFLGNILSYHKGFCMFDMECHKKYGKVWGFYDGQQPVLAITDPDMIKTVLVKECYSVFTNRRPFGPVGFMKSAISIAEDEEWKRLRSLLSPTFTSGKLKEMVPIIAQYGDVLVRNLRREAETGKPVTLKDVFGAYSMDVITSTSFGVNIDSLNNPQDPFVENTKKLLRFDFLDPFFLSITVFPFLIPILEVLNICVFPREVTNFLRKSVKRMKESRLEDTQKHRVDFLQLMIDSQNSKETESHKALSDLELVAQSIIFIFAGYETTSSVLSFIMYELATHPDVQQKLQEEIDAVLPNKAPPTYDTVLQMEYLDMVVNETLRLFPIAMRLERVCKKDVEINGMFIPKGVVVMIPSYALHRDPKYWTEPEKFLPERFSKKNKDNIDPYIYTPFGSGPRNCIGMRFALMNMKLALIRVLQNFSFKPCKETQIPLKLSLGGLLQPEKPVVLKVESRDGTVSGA

For the molecule `CC(=O)n1ccnc1` [1-Acetylimidazole], the half-maximal inhibitory concentration (IC50) in data set [1] (setting [4]) is above 10 µM.
Consider `Cn1ccnc1` [1-Methylimidazole], for which, in data set [1], the IC50 is above 10 µM.
As to `C=Cn1ccnc1` [1-Vinylimidazole], the concentration for half-maximal inhibition (IC50) in data set [1] (setting [4]) was above 10 µM.
As for `Cc1nccn1Cc1ccccc1` [1-benzyl-2-methylimidazole], in data set [2] (pig), the IC50 stood at 308 µM.
With `c1ccc(Cn2ccnc2)cc1` [1-benzylimidazole], the IC50 in data set [2] (setting [5]) is 77.5 µM.
Consider `c1ccc(-n2ccnc2)cc1` [1-phenylimidazole], for which the “facial and neck skin inflammation noted by the subject” value in data set [3] is listed as “significantly less inflamed”. The “inhibitory activity in the CYP3A4 assay (in words)” value in data set [1] (P450-GLO Assay kit) is “showed inhibitory activity”. The “Hit / no hit for inhibition of CYP3A4” value in data set [1] (setting [6]) was “Hit”. Further, the IC50 in data set [1] (human, recombinant enzyme) amounted to 1 µM; in data set [2] (setting [5]), 52.5 µM. Moreover, the “CYP inhibitory activity (in words), 4-hydroxylase assay” value (from here on “CYP inhibitory activity (in words)”) in data set [2] (pig liver microsomes) is given as “IC50 values in the same range as climbazole”.
For `O=C(n1ccnc1)n1ccnc1` [1′-1-Carbonylimidazole], the 50% inhibitory concentration (IC50) in data set [1] (setting [4]) is above 10 µM.
Same read-out and setting: the value for `Clc1ccccc1-c1nc2ccccc2[nH]1` [2-(2-Chlorophenyl) benzimidazole] was above 10 µM.
For `CCCCc1nc(C=O)c(Cl)[nH]1` [2-Butyl-4-chloro-5-formylimidazole], the IC50 in data set [1] was above 10 µM.
With `CCc1nc(C)c[nH]1` [2-Ethyl-4-methylimidazole], the IC50 in data set [1] (setting [4]) was above 10 µM.
On to `CCc1ncc[nH]1` [2-Ethylimidazole], for which the IC50 in data set [1] is above 10 µM.
`Cc1ncc[nH]1` [2-Methylimidazole]: the half-maximal inhibitory concentration (IC50) in data set [1] (setting [4]) is above 10 µM.
With `c1ccc(-c2ncc[nH]2)cc1` [2-phenylimidazole], the values for the IC50 in data set [1] and in data set [2] (setting [5]) were above 10 µM and above 500 µM, respectively. Further, in data set [1], the “inhibitory activity in the CYP3A4 assay (in words)” value is given as “did not”. Besides, the “CYP inhibitory activity (in words)” value in data set [2] (pig liver microsomes) is “lacked any significant inhibitory activity”.
As to `c1ccc(-c2nc[nH]c2-c2ccccc2)cc1` [4,5-diphenylimidazole], in data set [2] (pig), the IC50 stood at 100 µM.
Take `c1ccc(-c2c[nH]cn2)cc1` [4-phenylimidazole]: in data set [2] (pig liver microsomes), the “CYP inhibitory activity (in words)” value is recorded as “IC50 values in the same range as climbazole”.
With `CC(=O)c1ccc(-n2ccnc2)cc1` [4′-(Imidazol-1yl) acetophenome], the IC50 in data set [1] (setting [4]) came to 0.8 µM. In data set [1] (human, recombinant enzyme), the “Hit / no hit for inhibition of CYP3A4” value is “Hit”.
Turning to `Clc1ncnc2[nH]cnc12` [6-Chloropurine], in data set [1] (setting [4]), the IC50 is above 10 µM.
As for `Nc1nc[nH]n1` [Amitrol], the IC50 in data set [1] was above 10 µM.
As to `c1ccc2[nH]cnc2c1` [Benzimidazole], the IC50 in data set [1] (setting [4]) was above 10 µM.
`CC1=N[C@H](C(=O)O)CCN1` [Ectoine]: the IC50 in data set [1] (setting [4]) was above 10 µM.
In data set [1], `c1coc(-c2nc3ccccc3[nH]2)c1` [Fuberidazole] returned an IC50 above 10 µM. In data set [1] (human, recombinant enzyme), the “Hit / no hit for inhibition of CYP3A4” value is on record as “no hit >10 uM (key: hit: strong inhibition (IC50 value<10 μM); no hit: weak/no inhibition (IC50 value>10 μM))”.
Regarding `N=C(N)c1ccc(OCCCCCCOc2ccc(C(=N)N)cc2)cc1` [Hexamidine diisethionate], in data set [1] (setting [4]), the IC50 was above 10 µM.
Same read-out and setting: under `N[C@@H](Cc1c[nH]cn1)C(=O)O` [Histidine] stands above 10 µM.
In data set [1], `c1ccc(-c2n[nH]cc2-c2ccnc3ccccc23)nc1` [LY-364947] gave a half-maximal inhibitory concentration (IC50) above 10 µM.
Regarding `Cc1cccc(C)c1N(Cn1cccn1)C(=O)CCl` [Metazachlor], the IC50 in data set [1] is above 10 µM. The “Hit / no hit for inhibition of CYP3A4” value in data set [1] (human, recombinant enzyme) is “no hit >10UM (key: hit: strong inhibition (IC50 value<10 μM); no hit: weak/no inhibition (IC50 value>10 μM))”.
Consider `Cc1ccc2cc3c(ccc4ccccc43)c3c2c1CC3` [Methylcholanthrene], for which the “Hit / no hit for inhibition of CYP3A4” value in data set [1] (setting [6]) is “Near Hit”.
In turn, `CCc1cccc(C)c1N(C(=O)CCl)C(C)COC` (centres unmarked) [Metolachlor] registered a concentration for half-maximal inhibition (IC50) in data set [1] above 10 µM. For the same molecule, the “Hit / no hit for inhibition of CYP3A4” value in data set [1] (setting [6]) is “no hit (weak/no inhibition (IC50 value>10 μM))”.
Take `CC(C)(C(=O)c1cccnc1)c1cccnc1` [Metyrapone]: half-maximal inhibition in data set [1] (IC50) was put at 3 µM. Besides, the “Hit / no hit for inhibition of CYP3A4” value in data set [1] (human, recombinant enzyme) is given as “Hit”.
On to `Clc1ccc(COC(Cn2ccnc2)c2ccc(Cl)cc2Cl)c(Cl)c1` (centres unmarked) [Miconazole], for which the “Hit / no hit for inhibition of CYP3A4” value in data set [1] (human, recombinant enzyme) is on record as “Hit 5 uM”.
Molecule `NCCCn1ccnc1` [N-(3-Aminopropyl) imidazole] showed an IC50 in data set [1] above 10 µM.
In the case of `CC(=O)/C=C/C1=C(C)CCCC1(C)C` [β-Ionone], in data set [1] (setting [4]), the IC50 was above 10 µM.
For the molecule Benomyl, the “Hit / no hit for inhibition of CYP3A4” value in data set [1] (setting [6]) is “no hit (weak/no inhibition (IC50 value>10 μM))”. For the same molecule, the IC50 in data set [1] (setting [7]) is above 10 µM.
The matching figures for Glutamylamidoethyl imidazole: “no hit (weak/no inhibition (IC50 value>10 μM))” and above 10 µM.
On the same counts, the results for Piperine are “Hit” and around 10 µM.
